The test has as its system P. falciparum 3D7 growth, pLDH absorbance. In words: P. falciparum 3D7 growth inhibition, dose response, strain 3D7 (AID 2305).

As a reminder, the IC50 is the point on the concentration scale where inhibition reaches its midpoint. A higher IC50 goes with lower potency.

The structures appear in SMILES notation.

The compound `Cc1cc(C(=O)Nc2ccc3c(c2)CCN3C2CCN(Cc3cccc(F)c3F)C2)no1` (stereo not drawn) displayed an IC50 of 580 nM.
Turning to `CCCC(=O)c1c(O)c2ccccc2oc1=O`, the IC50 came out at 260 nM. Against the preceding compound, the IC50 is about 2.2-fold lower.
Compound `N#Cc1ccc(CN2CCC(Oc3ccc(NC(=O)c4ccco4)cc3Cl)C2)cc1` (stereo not drawn) displayed an IC50 of 330 nM.
In turn, `CN(C)c1ccc(-c2ccc(C(=O)NC3CCN(Cc4ccc(F)cc4)CC3)s2)cc1` displayed an IC50 of 1050 nM. This IC50 is about 3.2-fold higher than that of the compound before.
Then `Cc1cc(C(=O)Nc2ccc(C)c(-c3nc(N(C(=O)c4ccc(F)c(C)c4)C4CCNCC4)nc4c3ccc(=O)n4-c3c(F)cccc3F)c2)ccc1F`, with 320 nM; and `Cc1cccc2[nH]c(-c3ccc(-c4cccc(NC(=O)Nc5ccccc5)c4)cc3)nc12`, with 720 nM; and `Cc1ccc(NC(=O)Nc2ccccc2)cc1-c1ccc(C(=O)Nc2ccncc2)cc1`, with 240 nM.
For the compound `Cc1cc(N[C@@H](CC(C)C)C(=O)Nc2ccccc2)nc(NCCc2ccccc2)n1`, the IC50 was 890 nM.
Then `COc1ccc(N2CCN(CCCCNC(=O)c3ccc(NC(=O)c4ccc(Cl)c(Cl)c4)cc3)CC2)c(OC)c1`, with 210 nM; and `O=c1c2c([nH]c3cc(Cl)ccc13)CCCC2`, with 810 nM.
Next, `CCCCCNc1nc2nc(N)nc(N)c2nc1-c1ccccc1`: 950 nM; `CCc1ccc(NC(=O)c2ccc(CN3CCCN(Cc4cccs4)CC3)cc2)cc1`: 830 nM.
Then `C=CCn1c(Sc2ccc(C#N)c([N+](=O)[O-])c2)nnc1-c1cccc(Cl)c1`, with 300 nM; and `CCC1CN(S(=O)(=O)c2ccc3c(c2)NC(=O)CC(=O)N3)c2cc(Cl)ccc2O1` (stereo not drawn), with 660 nM.
On to `COc1cccc(NC(=O)c2cc(C(=O)Nc3cccc(OC)c3)cc([N+](=O)[O-])c2)c1`, for which the IC50 came out at 660 nM.
In turn, `NC1=Nc2ccc(Cl)cc2C1(O)c1ccccc1` (stereo not drawn) showed an IC50 of 880 nM.
For `CCOCCCNc1ncc(-c2ccsc2)c(-c2nc(C)cs2)n1`, the IC50 worked out at 270 nM. Against the preceding compound, the IC50 is about 3.3-fold lower.
Regarding `O=C(NCC1CCN(Cc2cccc(C(F)(F)F)c2)C1)c1cc(-c2cccc(Cl)c2)cs1` (stereo not drawn), the IC50 came to 800 nM.
Then `CNCCN(C)C(=O)Oc1c(Br)c(C)nc(C)c1-c1ccc(Oc2ccc(OC(F)(F)F)cc2)cc1`, with 110 nM; and `NC1CCN(Cc2cccc(-c3ccc(-c4nc5ccccc5[nH]4)s3)c2)C1` (stereo not drawn), with 730 nM; and `CCn1c(-c2nonc2N)nc2c(-c3cccc(NC(=O)Nc4ccc5c(c4)CCC5)c3)ncc(OCCCN)c21`, with 780 nM.
`Cc1ccc(Cl)cc1N1CCN(CCCNC(=O)C2CCN(c3nc4ccccc4[nH]3)CC2)CC1` had an IC50 of 900 nM. The IC50 values of the last two compounds are within 1.5-fold of each other.
Then `CCc1ccc(CN(CCCOc2cccc(CC(=O)NCc3cnc[nH]3)c2)Cc2ccc(-n3ccnc3)cc2)cc1`, with 980 nM; and `COc1ccc(S(=O)(=O)Nc2ccc(C(=O)NCc3ccc(C(F)(F)F)cc3)cc2)cc1N1CCN(CC2CC2)CC1`, with 1120 nM.
The compound `COc1ccc(NC(=O)C2c3ccccc3C(=O)N(C3CCCC3)C2c2cccs2)c(OC)c1` (stereo not drawn) registered an IC50 of 1480 nM. The IC50 values of the last two compounds are within 1.5-fold of each other.
The compound `CCC(C)NC(=O)CN1CN(c2ccccc2)C2(CCN(C(=O)c3ccc4ccccc4c3)CC2)C1=O` (stereo not drawn) registered an IC50 of 630 nM.
The compound `O=C(NC1CCC(N2CCC(c3nc4ccccc4s3)CC2)CC1)c1cc2ccccc2[nH]1` (stereo not drawn) yielded an IC50 of 930 nM. The IC50 values of the last two compounds are within 1.5-fold of each other.
Next, `Oc1ccc(Nc2nc(N3CCCC3)c3ccccc3n2)cc1`: 270 nM; `Oc1ccc(CCNc2nc(NCc3ccccc3-c3ccccc3)nc(N3CCCNCC3)n2)cc1`: 880 nM.
`O=C1C2C(C(=O)N1c1ccccc1)[C@H]1S[C@@H]2c2c1ccc1ccccc21` (stereo partly drawn) yielded an IC50 of 770 nM.
Next, `CC(C)c1ccc(NC(=O)c2ccc(C(=O)NC3CCN(Cc4ccccc4)CC3)cc2)cc1`: 980 nM.
Turning to `O=C(Nc1cccc(-c2nn3ccccc3c2-c2ccnc(Nc3ccc(-c4cc[nH]n4)cc3)n2)c1)c1c(F)cccc1F`, the IC50 was determined as 190 nM.
Next, `CC(C)[C@H](NC(=O)c1ccc(O)c(-c2ccc(Cl)c(Cl)c2)c1)C(=O)NC1CCCCCC1`: 220 nM; `CN1CCC(NCc2cccc(-c3ccc(S(=O)(=O)NCCc4ccccn4)cc3)c2)CC1`: 830 nM; `CCCCNCc1ccc(-c2nc(CN(CCCn3ccnc3)C(=O)N[C@@H]3C[C@H]3c3ccccc3)cs2)cc1`: 740 nM.
Turning to `CCCC(C)n1ccc2c3c(N)nc(N)nc3ccc21` (stereo not drawn), the IC50 is 50 nM.
In turn, `CC1CCN(CC[C@H]2CCCN2S(=O)(=O)c2cccc(NC(=O)Nc3ccc(C(F)(F)F)cc3)c2)CC1` came in with a half-inhibitory concentration (IC50) of 720 nM.
Then `CC(C)Oc1cc2c(cc1NS(=O)(=O)c1ccc(-c3cccs3)cc1)CCN(C)CC2`, with 960 nM; and `Brc1ccccc1CNc1ccnc(NCCn2ccnc2)n1`, with 900 nM.
Next, `O=c1cc(NCCCNCc2cccc(Oc3ccccc3)c2)[nH]c2ccccc12`: 950 nM.
Next, `Cc1sc(CNCCCNc2cc(=O)c3ccccc3[nH]2)c(I)c1C`: 850 nM.
As for `CCCCC#Cc1cnc2nc(N)[nH]c(=O)c2n1`, the IC50 is 650 nM.
Next, `O=C(C=Cc1cn(-c2ccccc2)nc1-c1ccccc1)N1CCN(c2ccncc2)CC1`: 960 nM; `COc1ccc(-c2ccccc2CNc2nc(NCCc3ccc(O)cc3)nc(N3CCNCC3)n2)cc1`: 1080 nM.
In turn, `O=C(CSc1ccccn1)Nc1c(F)cccc1F` displayed an IC50 of 1210 nM.
Then `N#Cc1cc(C(=O)c2cc(Cl)ccc2O)cn(-c2cccc(C(F)(F)F)c2)c1=O`, with 1130 nM.
Next, `NC(=O)N1CCN(Cc2ccc(Br)cc2)CC1`: 620 nM; `COc1ccc(Nc2nc(NCc3cccnc3)cc(-c3ccc(OC)cc3)n2)cc1`: 1400 nM; `Cc1ccc(NC(=O)N2CCC(n3c(-c4ccccc4)nc4cccnc43)CC2)cc1F`: 530 nM.
Next, `CCCCCOc1ccc(C(O)C(CN2CCCCC2)c2ccccc2)cc1` (stereo not drawn): 880 nM; `Cc1cc(N[C@@H](Cc2ccccc2)C(=O)NCCc2ccccc2)nc(NCCc2ccccc2)n1`: 850 nM; `O=C(NCCc1ccccc1)c1cc(-c2cccnc2)cnc1NCC1CC1`: 850 nM.
For `Cc1[nH]cnc1CSCCNC(N)=NCCCCCCCCN=C(N)NCCSCc1nc[nH]c1C`, the IC50 was 270 nM. Compared with the last compound, the IC50 is about 3.1-fold lower.
Next, `CN1CC=C(c2csc3ccc(NC(=O)Nc4ccc(-c5ccncc5)c5ccccc45)cc23)CC1`: 800 nM.
Then `CCc1ccc(CN2CCC(NC(=O)c3ccc(-c4ccccc4F)s3)CC2)cc1`, with 1490 nM.
Next, `CC(C)(C)c1ccc(CN2CCC(NC(=O)c3ccc(-c4ccccc4Cl)s3)CC2)cc1`: 1350 nM; `CC1(C)OC[C@]2(C)[C@@H](CC[C@]3(C)C4=CC(=O)CCC4CC[C@@H]23)O1` (stereo partly drawn): 280 nM; `Cc1ccc(NC(=O)c2ccc(CN3CCCN(CCC(C)C)CC3)cc2)cc1F`: 610 nM.
On to `CC1(C)[C@H]2C=C(CN3CCC(NC(=O)Nc4ccc(Cl)c(Cl)c4)CC3)[C@@H]1CC2`, for which the concentration for half-maximal inhibition (IC50) came to 760 nM.
`O=C(/C=C/c1ccc(Cl)c(Cl)c1)NCCCCCN1CCC(c2c[nH]c3ccc(O)cc23)CC1` had an IC50 of 890 nM.
Next, `O=C1CCCN1CCCNCc1ccc(-c2ccc(-c3nc4ccc(F)cc4[nH]3)s2)cc1`: 900 nM; `COc1ccc(F)cc1-c1cccc(CNC2CCN(CC3Cn4c(=O)ccc5ccc(F)c3c54)CC2)c1` (stereo not drawn): 830 nM; `FC(F)(F)c1ccc2nc(-c3ccc(-c4cccc(CN5CCC(CCN6CCCCC6)CC5)c4)cc3)[nH]c2c1`: 150 nM.
Then `COc1ccc(-c2cnc3[nH]cc(-c4ccncc4)c3c2)cc1OC`, with 130 nM; and `CCOc1cc(NCCCNc2ncc([N+](=O)[O-])cc2C)nc2ccccc12`, with 690 nM.
Next, `COc1ccc(C2C(C(=O)OC3CCCCC3)=C(C)NC3=C2C(=O)CCC3)cc1Br` (stereo not drawn): 580 nM; `CC(Cc1ccc(S(=O)(=O)N(C(C)C)C(C)C)cc1)NCC(O)c1cccc(C(F)(F)F)c1` (stereo not drawn): 690 nM; `COc1cc(OCCCN(C)Cc2ccc(OC)c(OC)c2)ccc1NC(=O)c1cccc2c(=O)c3cccc(F)c3[nH]c12`: 890 nM.
The compound `Cc1ccc2c(NN=Cc3ccccc3[N+](=O)[O-])cc(C)nc2c1` displayed an IC50 of 420 nM.
Then `NC1CCN(Cc2cccc(-c3ccc(-c4nc5ccccc5[nH]4)cc3)c2)C1` (stereo not drawn), with 830 nM.
Compound `CCCCCN1CCCC1CNS(=O)(=O)c1cccc(C(=O)Nc2cccc(C(F)(F)F)c2)c1` (stereo not drawn) gave an IC50 of 770 nM. This IC50 and that of the compound before are within 1.5-fold of each other.
Next, `O=C(Nc1cccc(N2CCC(NCCCc3ccncc3)CC2)c1)c1cccc(C(F)(F)F)c1`: 850 nM; `Cc1noc(C)c1S(=O)(=O)N(C)Cc1ccc(-c2ccc(Cl)cc2)o1`: 360 nM; `CN1CCN(Cc2cc3cc(NC(=O)/C=C/c4cccc(Cl)c4)ccc3s2)CC1`: 270 nM.
Next, `COc1ccc2c(NN=Cc3cccc([N+](=O)[O-])c3)cc(C)nc2c1`: 560 nM.
The compound `COc1ccc(-c2nc(NCc3ccccc3)c3cc(OC)c(OC)cc3n2)cc1` displayed an IC50 of 400 nM. This IC50 and that of the compound before are within 1.5-fold of each other.
For the compound `c1ccc2c(NCCCCCCNc3c4c(nc5ccccc35)CCCC4)c3c(nc2c1)CCCC3`, the IC50 was determined as 200 nM.
Then `CO/C(=C/C=C/c1cc2cc(Cl)c(Cl)cc2[nH]1)C(=O)NC1CC(C)(C)N(C)C(C)(C)C1`, with 780 nM; and `CCOC(=O)c1ccc(N2CCCCC2)c(NC(=O)C(Cl)(Cl)Cl)c1`, with 850 nM; and `COc1ccc(NC(=O)[C@H](CC(C)C)Nc2cc(C)nc(NCc3ccccc3C)n2)cc1`, with 890 nM.
Then `CC(C)CCN(Cc1cncn1Cc1cccc(C(F)(F)F)c1)C(=O)c1cncc(-c2ccccc2)c1`, with 770 nM; and `Nc1c(Cl)cc(C(O)CNCCCCCCCCCc2ccccn2)cc1Cl` (stereo not drawn), with 860 nM.
Next, `CCCN1CCN(CCCNC(=O)c2cc3c(Cl)nc4ccc(C)cc4c3s2)CC1`: 800 nM; `CN(C)C(=NCCCCCCN=C(/N=C(/N)Nc1ccc(Cl)cc1)N(C)C)/N=C(/N)Nc1ccc(Cl)cc1`: 530 nM.
As for `Cc1ccc(Nc2nc(NN=Cc3ccc(-c4ccc([N+](=O)[O-])cc4)o3)nc(N3CCOCC3)n2)cc1Cl`, the IC50 was 650 nM.
Next, `O=C(/C=C/c1ccc(Cl)c(Cl)c1)NCCCCCN1CCN(C(=O)Nc2cccc(F)c2)CC1`: 870 nM; `Cc1ccc(O)cc1Nc1ccnc2cc(-c3nccs3)ccc12`: 880 nM; `CN(C)Cc1c(O)ccc2oc(Cc3ccccc3)cc12`: 910 nM.

For the origin of these results see PubChem BioAssay AID2305 (GlaxoSmithKline (GSK), 2010).
